From US20220025004A1, “COMPOSITIONS AND METHODS RELATED TO SITE-SPECIFIC IDENTIFICATION OF RNA MODIFICATIONS” (The University of Chicago, priority 2018, published 2022)
Where a SMILES comes first, the peptide text is derived from it. The star is where a group is joined. Cbz = O=C(OCc1ccccc1)*; CHN2 = [N-]=[N+]=C*; tBu = CC(C)(C)*

What was measured:
[1] = tested on: Flt3L-DCs; assay: Cross-priming capacity of Flt3L-DCs pre-treated with CA-074 and/or cathepsin L inhibitor III, co-cultured with necrotic B16-OVA (IFN-γ production); type: cell-based, mouse; settings: 5 μg/ml inhibitor for 2 h, necrotic B16-OVA 16 h, OT-I cells 3 days, FIG. 12F
Method: (§1) For cross-presentation of tumor neoantigen, CD11b^+ or CD8^+ DC were purified from draining lymph node of WT or Ythdf1^−/− mice six days after inoculating with B16-OVA, MC38-OTIp or MC38-EGFR-SIY. OT-I or 2C naive CD8^+ T cells were isolated from lymph nodes and spleen of 6 to 12-week-old mice. Negative selection was carried out with a negative CD8 isolation kit (StemCell Technologies, Inc.) following manufacturer's instruction. DCs were co-cultured with OT-1 naive CD8 T cells at the ratio of 1:10 for three days with or without 1 μg/ml SIINFEKEL peptide. For cross-presentation of soluble OVA, splenic DCs were sorted and stimulated with 100 ng/ml LPS overnight. DCs were then pulsed with different concentration of OVA (endotoxin free, Sigma) for 5 hours. Cells were washed and co-cultured with OT-I naive CD8^+ T cells for three days. For in vitro cross-presentation of tumor neoantigen, Flt3L-DCs were collected on day 9-10 and co-cultured with necrotic B16-OVA tumor cells overnight. B220^−CD11c^+ cells were subsequently purified. […] IFN-T production was detected by IFN-γ Flex Set CBA assay (BD Bioscience). […] The cross-priming capacity of DC was analyzed by the dilution of CTV in CD8^+ T cells. […] The cross-priming capacity of DCs was then evaluated by the IFN-γ production. […]

[2] = tested on: wild-type DCs; assay: Cross-priming capacity of wild-type DCs pre-treated with cathepsin inhibitor E64 (ex vivo cDCs, CTV dilution; GMDCs, IFN-γ CBA); type: cell-based, mouse; settings: E64 0.04 μM (ex vivo cDCs, OVA protein) or 0.2-2 μM (GMDCs, B16-OVA); OT-I T cells; FIGS. 12D-12E
Method: as §1

[3] = tested on: B16-OVA tumors; assay: Cathepsin blockade in vivo: B16-OVA tumor growth after intratumoral E64; design: species or system mouse; settings: WT mice, s.c. B16-OVA, E64 intratumorally (5 μM or 50 μM) on day 11; FIG. 4B
Method: About 1×10^6 B16-OVA or MC38 tumor cells were injected s.c. into the flank of mice. Tumor volumes were measured by length (a) and width (b) and calculated as tumor volume=ab^2/2. Mice with tumor volumes less than 200 mm^3 are considered to be survival. For in vivo depletion experiments, 200 μg of anti-CD8 antibody (clone YTS169.4) or anti-NK1.1 (clone PK136) was injected i.p. three days after tumor inoculation. To block cathepsins in vivo, mice were inoculated with 1×10^6 B16-OVA cells. On day 11, mice with established tumors were treated with E64 intratumorally. For anti-PDL1 treatment, 1×10^6 B16-OVA tumor cells were s.c. injected into the flank of mice. Tumors were allowed to grow for seven days and treated i.p. by anti-PDL1 (clone10F.9G2) or Rat Ig. Tumor-free mice after treatment were monitored over time and the percentage of tumor-regression was calculated. To block IFNγ, tumor-bearing mice were treated with 50 μg anti-IFNγ mAb (clone XMG1.2) intratumorally and PD-L1 expression on tumor cells was evaluated by flow cytometry. All antibodies were ‘InVivoMAb’ from BioXCell. For adoptive transfer of T cells. Rag mice were inoculated with 5×10^5 B16-OVA on day 0. On the same day, T cells were purified from WT or Ythdf1^−/− mice using T cell negative isolation Kit (STEM CELL). 5×10^6 T cells were intravenously (i.v.) injected into Rag2^−/− mice.

CCCNC(=O)[C@H]1O[C@@H]1C(=O)N[C@H](C(=O)N1CCC[C@H]1C(=O)OC)[C@@H](C)CC [CA-074]
efficiency of cross-priming in wild-type DCs [1]: notably enhanced

CC(C)C[C@H](NC(=O)[C@H]1O[C@@H]1C(=O)O)C(=O)NCCCCN=C(N)N [E64]
efficiency of cross-priming in wild-type DCs [2]: notably enhanced | in vivo antitumor response [3]: markedly improved

CC(C)(C)Oc1ccc(C[C@H](NC(=O)[C@H](Cc2ccccc2)NC(=O)OCc2ccccc2)C(=O)C=[N+]=[N-])cc1 [cathepsin L inhibitor III] (Cbz-Phe-Tyr(tBu)-CHN2)
efficiency of cross-priming in wild-type DCs [1]: notably enhanced
